Experimental data from PubChem BioAssay AID2060620 (Molecular Pharmacology Branch, DTP, NCI, 2025).

Tested on: 328373-195-R-J1-PDC complex spheroids, viability % test/control
Assay: Anticancer human tumor 328373-195-R-J1-PDC patient-derived head and neck squamous carcinoma cell line growth inhibition [CLK]
Conditions: for IC50: curve of first compound; for viability, T/C: stronger effect = lower value
Method in brief: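 Patient-derived tumor cells grown as complex spheroids with HUVEC endothelial cells and mesenchymal stem cells, treated with drug combinations. Concentrations descend in half-log steps from near clinical Cmax, or from 10 microM if Cmax unknown.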

[1] = second compound 0.0316 µM, first compound 0.0316 µM
[2] = second compound 0.0316 µM, first compound 0.1 µM
[3] = second compound 0.0316 µM, first compound 0.316 µM
[4] = second compound 0.0316 µM, first compound 1 µM
[5] = second compound 0.0316 µM, first compound 3.16 µM
[6] = second compound 0.0316 µM, first compound 10 µM
[7] = second compound 0.1 µM, first compound 0.0316 µM
[8] = second compound 0.1 µM, first compound 0.1 µM
[9] = second compound 0.1 µM, first compound 0.316 µM
[10] = second compound 0.1 µM, first compound 1 µM
[11] = second compound 0.1 µM, first compound 3.16 µM
[12] = second compound 0.1 µM, first compound 10 µM
[13] = second compound 0.316 µM, first compound 0.0316 µM
[14] = second compound 0.316 µM, first compound 0.1 µM
[15] = second compound 0.316 µM, first compound 0.316 µM
[16] = second compound 0.316 µM, first compound 1 µM
[17] = second compound 0.316 µM, first compound 3.16 µM
[18] = second compound 0.316 µM, first compound 10 µM
[19] = second compound 1 µM, first compound 0.0316 µM
[20] = second compound 1 µM, first compound 0.1 µM
[21] = second compound 1 µM, first compound 0.316 µM
[22] = second compound 1 µM, first compound 1 µM
[23] = second compound 1 µM, first compound 3.16 µM
[24] = second compound 1 µM, first compound 10 µM
[25] = second compound 3.16 µM, first compound 0.0316 µM
[26] = second compound 3.16 µM, first compound 0.1 µM
[27] = second compound 3.16 µM, first compound 0.316 µM
[28] = second compound 3.16 µM, first compound 1 µM
[29] = second compound 3.16 µM, first compound 3.16 µM
[30] = second compound 3.16 µM, first compound 10 µM
[31] = second compound 10 µM, first compound 0.0316 µM
[32] = second compound 10 µM, first compound 0.1 µM
[33] = second compound 10 µM, first compound 0.316 µM
[34] = second compound 10 µM, first compound 1 µM
[35] = second compound 10 µM, first compound 3.16 µM
[36] = second compound 10 µM, first compound 10 µM
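Further: spheroids exposed to the agents for 7 days.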

C#Cc1c(F)ccc2cc(O)cc(-c3ncc4c(N5CC6CCC(C5)N6)nc(OCC56CCCN5CC(F)C6)nc4c3F)c12 (stereo unspecified) + CNC(=O)c1ccc(Nc2nc(OC3CCCC3)c3c(-c4ccc5nc(C)oc5c4)c[nH]c3n2)c(OC)c1 showed an IC50 (second compound 0.0316 µM) of 5140 nM, an IC50 (second compound 0.1 µM) of less than 31.6 nM and an IC50 (second compound 0.316 µM) of less than 31.6 nM. For the same compound, the IC50 (second compound 1 µM) was less than 31.6 nM, the IC50 (second compound 3.16 µM) was less than 31.6 nM and the IC50 (second compound 10 µM) was less than 31.6 nM. For the same compound, the viability, T/C [1] was 68.5%, the viability, T/C [2] was 63.2% and the viability, T/C [3] was 60.2%. The viability, T/C [4] was 65%, the viability, T/C [5] was 62.6% and the viability, T/C [6] was 32.6%. It also gave a viability, T/C [7] of 11.3%, a viability, T/C [8] of 10.5% and a viability, T/C [9] of 7.58%. For the same compound, the viability, T/C [10] was 11.6%, the viability, T/C [11] was 9.36% and the viability, T/C [12] was 7.63%. For the same compound, the viability, T/C [13] was 8.02%, the viability, T/C [14] was 9.37% and the viability, T/C [15] was 9.67%. For the same compound, the viability, T/C [16] was 8.78%, the viability, T/C [17] was 7.32% and the viability, T/C [18] was 5.64%. For the same compound, the viability, T/C [19] was 10%, the viability, T/C [20] was 11.6% and the viability, T/C [21] was 8.24%. It also gave a viability, T/C [22] of 9.01%, a viability, T/C [23] of 8.47% and a viability, T/C [24] of 5.54%. It also gave a viability, T/C [25] of 9.2%, a viability, T/C [26] of 8.8% and a viability, T/C [27] of 9.68%. It also gave a viability, T/C [28] of 9.11%, a viability, T/C [29] of 9.06% and a viability, T/C [30] of 6.06%. It also gave a viability, T/C [31] of 10.7%, a viability, T/C [32] of 11.8% and a viability, T/C [33] of 10.1%. For the same compound, the viability, T/C [34] was 10.3%, the viability, T/C [35] was 10.5% and the viability, T/C [36] was 4.63%.
For C=C(F)C(=O)N1CCN(c2nc(OCC3CCCN3C)nc3c2CCN(c2cccc4cccc(Cl)c24)C3)CC1CC#N (stereo unspecified) + CNC(=O)c1ccc(Nc2nc(OC3CCCC3)c3c(-c4ccc5nc(C)oc5c4)c[nH]c3n2)c(OC)c1, the IC50 (second compound 0.0316 µM) was 1810 nM, the IC50 (second compound 0.1 µM) was less than 31.6 nM and the IC50 (second compound 0.316 µM) was less than 31.6 nM. It also gave an IC50 (second compound 1 µM) of less than 31.6 nM, an IC50 (second compound 3.16 µM) of less than 31.6 nM and an IC50 (second compound 10 µM) of less than 31.6 nM. The viability, T/C [1] was 55%, the viability, T/C [2] was 57.6% and the viability, T/C [3] was 57%. It also gave a viability, T/C [4] of 57.2%, a viability, T/C [5] of 43.8% and a viability, T/C [6] of 0.11%. The viability, T/C [7] was 11.2%, the viability, T/C [8] was 9.34% and the viability, T/C [9] was 8.18%. It also gave a viability, T/C [10] of 10.4%, a viability, T/C [11] of 10.7% and a viability, T/C [12] of 0.09%. It also gave a viability, T/C [13] of 10.5%, a viability, T/C [14] of 8.47% and a viability, T/C [15] of 10.6%. It also gave a viability, T/C [16] of 8.2%, a viability, T/C [17] of 8.71% and a viability, T/C [18] of 0.79%. It also gave a viability, T/C [19] of 8.55%, a viability, T/C [20] of 9.75% and a viability, T/C [21] of 8.98%. For the same compound, the viability, T/C [22] was 8.73%, the viability, T/C [23] was 11.3% and the viability, T/C [24] was 0.08%. It also gave a viability, T/C [25] of 11.6%, a viability, T/C [26] of 10% and a viability, T/C [27] of 9.7%. For the same compound, the viability, T/C [28] was 10.9%, the viability, T/C [29] was 9.36% and the viability, T/C [30] was 0.12%. For the same compound, the viability, T/C [31] was 11.1%, the viability, T/C [32] was 11.5% and the viability, T/C [33] was 9.68%. For the same compound, the viability, T/C [34] was 10.4%, the viability, T/C [35] was 11.6% and the viability, T/C [36] was 0.19%.
CC(CO)NC(=O)c1cc(-c2ccc(Cl)cc2)nn(-c2cnn(C)c2)c1=O (stereo unspecified) + CNC(=O)c1ccc(Nc2nc(OC3CCCC3)c3c(-c4ccc5nc(C)oc5c4)c[nH]c3n2)c(OC)c1 gave an IC50 (second compound 0.0316 µM) greater than 10000 nM, an IC50 (second compound 0.1 µM) of less than 31.6 nM and an IC50 (second compound 0.316 µM) of less than 31.6 nM. The IC50 (second compound 1 µM) was less than 31.6 nM, the IC50 (second compound 3.16 µM) was less than 31.6 nM and the IC50 (second compound 10 µM) was less than 31.6 nM. For the same compound, the viability, T/C [1] was 76.2%, the viability, T/C [2] was 80.8% and the viability, T/C [3] was 73%. For the same compound, the viability, T/C [4] was 90.8%, the viability, T/C [5] was 73.6% and the viability, T/C [6] was 62.9%. It also gave a viability, T/C [7] of 16.1%, a viability, T/C [8] of 12.2% and a viability, T/C [9] of 11.9%. It also gave a viability, T/C [10] of 14.1%, a viability, T/C [11] of 16.1% and a viability, T/C [12] of 12.8%. For the same compound, the viability, T/C [13] was 10.9%, the viability, T/C [14] was 10.5% and the viability, T/C [15] was 11.2%. For the same compound, the viability, T/C [16] was 11.8%, the viability, T/C [17] was 11.4% and the viability, T/C [18] was 12%. For the same compound, the viability, T/C [19] was 8.66%, the viability, T/C [20] was 9.73% and the viability, T/C [21] was 9.96%. The viability, T/C [22] was 10.2%, the viability, T/C [23] was 9.14% and the viability, T/C [24] was 8.61%. For the same compound, the viability, T/C [25] was 13.6%, the viability, T/C [26] was 10.9% and the viability, T/C [27] was 8.97%. For the same compound, the viability, T/C [28] was 10.1%, the viability, T/C [29] was 12.7% and the viability, T/C [30] was 10.7%. For the same compound, the viability, T/C [31] was 12.9%, the viability, T/C [32] was 9.53% and the viability, T/C [33] was 11.4%. For the same compound, the viability, T/C [34] was 12.1%, the viability, T/C [35] was 13.2% and the viability, T/C [36] was 11.7%.
